{"source": "patent US11840686B2", "about": "“Modulation of prekallikrein (PKK) expression” (Ionis Pharmaceuticals, Inc., priority 2013, dated 2023)", "note": "Strand notation (5' to 3'): a small letter for the sugar, then the base; units joined by * are phosphorothioate-linked, units joined directly phosphodiester-linked; [ ] holds rarer units or linkages, { } end groups; capitals alone tell only the bases. e = 2'-O-(2-methoxyethyl) (MOE); [5mC] = 5-methylcytosine; d = 2'-deoxy (DNA)", "data": [{"tested_on": "human PKK mRNA", "assay": "Antisense inhibition of human PKK mRNA in HepaRG cells, 5,000 nM (Example 2)", "assay_type": "cell-based", "conditions": "Table 7; HepaRG cells, electroporation with 5,000 nM antisense oligonucleotide, approx. 24 hours; PKK mRNA by RT-PCR (RTS3454), relative to untreated control cells", "procedure": "(§1) Additional antisense oligonucleotides were designed targeting a PKK nucleic acid and were tested for their effects on PKK mRNA in vitro.\n(§2) The chimeric antisense oligonucleotides in the tables below were designed as 5-10-5 MOE gapmers, 4-9-4 MOE gapmers, 4-10-4 MOE gapmers, 4-10-3 MOE gapmers, 3-10-4 MOE gapmers, or 3-10-3 MOE gapmers. The 5-10-5 MOE gapmers are 20 nucleosides in length, wherein the central gap segment comprises of ten 2′-deoxynucleosides and is flanked by wing segments on the 5′ direction and the 3′ direction comprising five nucleosides each. The 4-9-4 MOE gapmers are 17 nucleosides in length, wherein the central gap segment comprises of nine 2′-deoxynucleosides and is flanked by wing segments on the 5′ direction and the 3′ direction comprising four nucleosides each. The 4-10-4 MOE gapmers are 18 nucleosides in length, wherein the central gap segment comprises of ten 2′-deoxynucleosides and is flanked by wing segments on the 5′ direction and the 3′ direction comprising four nucleosides each. The 4-10-3 MOE gapmers are 17 nucleosides in length, wherein the central gap segment comprises of ten 2′-deoxynucleosides and is flanked by wing segments on the 5′ direction and the 3′ direction comprising four and three nucleosides respectively. The 3-10-4 MOE gapmers are 17 nucleosides in length, wherein the central gap segment comprises often 2′-deoxynucleosides and is flanked by wing segments on the 5′ direction and the 3′ direction comprising three and four nucleosides respectively. The 3-10-3 MOE gapmers are 16 nucleosides in length, wherein the central gap segment comprises of ten 2′-deoxynucleosides and is flanked by wing segments on the 5′ direction and the 3′ direction comprising three nucleosides each. Each nucleoside in the 5′ wing segment and each nucleoside in the 3′ wing segment has a 2′-O-methoxyethyl modification. The internucleoside linkages throughout each gapmer are phosphorothioate linkages. All cytosine residues throughout each gapmer are 5-methylcytosines. “Start site” indicates the 5′-most nucleoside to which the gapmer is targeted in the human gene sequence. “Stop site” indicates the 3′-most nucleoside to which the gapmer is targeted in the human gene sequence.\n(§3) Cultured HepaRG™ cells at a density of 20,000 cells per well were transfected using electroporation with 5,000 nM antisense oligonucleotide. After a treatment period of approximately 24 hours, RNA was isolated from the cells and PKK mRNA levels were measured by quantitative real-time PCR. Human primer probe set RTS3454 was used to measure mRNA levels. PKK mRNA levels were adjusted according to total RNA content, as measured by RIBOGREEN®. The antisense oligonucleotides were tested in a series of experiments that had similar culture conditions. Results are presented as percent inhibition of PKK, relative to untreated control cells.", "units": {"% inhibition": "%"}, "values": [{"substance": "546233 (eA*eT*eG*eG*eT*dG*dT*dT*dT*dT*d[5mC]*dT*dT*dG*dA*eG*eG*eA*eG*eT; antisense) [compound 546233]", "% inhibition": 69}, {"substance": "546234 (e[5mC]*e[5mC]*eA*eG*eA*dT*dA*dT*dG*dG*dT*dG*dT*dT*dT*eT*e[5mC]*eT*eT*eG; antisense) [compound 546234]", "% inhibition": 69}, {"substance": "546235 (eG*eG*e[5mC]*eT*eA*dT*dA*dT*d[5mC]*d[5mC]*dA*dG*dA*dT*dA*eT*eG*eG*eT*eG; antisense) [compound 546235]", "% inhibition": 77}, {"substance": "546236 (eG*eT*eT*eA*eA*dA*dA*dG*dG*d[5mC]*dT*dA*dT*dA*dT*e[5mC]*e[5mC]*eA*eG*eA; antisense) [compound 546236]", "% inhibition": 50}, {"substance": "546237 (e[5mC]*eA*eG*eG*eT*dT*dA*dA*dA*dA*dG*dG*d[5mC]*dT*dA*eT*eA*eT*e[5mC]*e[5mC]; antisense) [compound 546237]", "% inhibition": 64}, {"substance": "546238 (e[5mC]*eT*eT*eT*eT*dG*d[5mC]*dA*dG*dG*dT*dT*dA*dA*dA*eA*eG*eG*e[5mC]*eT; antisense) [compound 546238]", "% inhibition": 63}, {"substance": "546239 (eG*eT*eT*e[5mC]*eT*dT*dT*dT*dG*d[5mC]*dA*dG*dG*dT*dT*eA*eA*eA*eA*eG; antisense) [compound 546239]", "% inhibition": 47}, {"substance": "546240 (eG*eT*eA*eA*eA*dG*dT*dT*d[5mC]*dT*dT*dT*dT*dG*d[5mC]*eA*eG*eG*eT*eT; antisense) [compound 546240]", "% inhibition": 23}, {"substance": "546241 (e[5mC]*eA*eG*eG*eT*dA*dA*dA*dG*dT*dT*d[5mC]*dT*dT*dT*eT*eG*e[5mC]*eA*eG; antisense) [compound 546241]", "% inhibition": 69}, {"substance": "546242 (eG*eG*eG*eT*eT*d[5mC]*dA*dG*dG*dT*dA*dA*dA*dG*dT*eT*e[5mC]*eT*eT*eT; antisense) [compound 546242]", "% inhibition": 8}, {"substance": "546243 (eA*eG*eA*eA*eT*dG*dG*d[5mC]*dA*dG*dG*dG*dT*dT*d[5mC]*eA*eG*eG*eT*eA; antisense) [compound 546243]", "% inhibition": 16}, {"substance": "546244 (eT*eA*eA*eA*eT*dT*dT*dT*dA*dG*dA*dA*dT*dG*dG*e[5mC]*eA*eG*eG*eG; antisense) [compound 546244]", "% inhibition": 27}, {"substance": "546249 (e[5mC]*eT*eT*e[5mC]*eT*d[5mC]*d[5mC]*dT*d[5mC]*d[5mC]*dA*dA*dA*dG*dT*e[5mC]*eA*eA*e[5mC]*eT; antisense) [compound 546249]", "% inhibition": 68}, {"substance": "546250 (e[5mC]*eA*eT*eT*e[5mC]*dA*dA*dT*dT*d[5mC]*dT*dT*d[5mC]*dT*d[5mC]*e[5mC]*eT*e[5mC]*e[5mC]*eA; antisense) [compound 546250]", "% inhibition": 65}]}, {"tested_on": "human PKK mRNA", "assay": "Antisense inhibition of human PKK mRNA in HepaRG cells, 5,000 nM (Example 2)", "assay_type": "cell-based", "conditions": "Table 8; HepaRG cells, electroporation with 5,000 nM antisense oligonucleotide, approx. 24 hours; PKK mRNA by RT-PCR (RTS3454), relative to untreated control cells", "procedure": "as §1, §2, §3", "units": {"% inhibition": "%"}, "values": [{"substance": "546252 (eT*e[5mC]*eT*eT*eG*dG*d[5mC]*dA*dA*dA*d[5mC]*dA*dT*dT*d[5mC]*eA*e[5mC]*eT*e[5mC]*e[5mC]; antisense) [compound 546252]", "% inhibition": 73}, {"substance": "546256 (eT*e[5mC]*eA*eT*e[5mC]*dT*dT*dT*dG*dT*dG*d[5mC]*dA*dA*dG*eT*e[5mC]*eT*e[5mC]*eT; antisense) [compound 546256]", "% inhibition": 83}, {"substance": "546258 (eA*e[5mC]*eA*eG*e[5mC]*dG*dA*dA*dT*d[5mC]*dA*dT*d[5mC]*dT*dT*eT*eG*eT*eG*e[5mC]; antisense) [compound 546258]", "% inhibition": 74}, {"substance": "546259 (eA*e[5mC]*eT*eG*eA*d[5mC]*dA*dG*d[5mC]*dG*dA*dA*dT*d[5mC]*dA*eT*e[5mC]*eT*eT*eT; antisense) [compound 546259]", "% inhibition": 86}, {"substance": "546260 (eG*eA*eA*eA*eA*dA*d[5mC]*dT*dG*dA*d[5mC]*dA*dG*d[5mC]*dG*eA*eA*eT*e[5mC]*eA; antisense) [compound 546260]", "% inhibition": 84}, {"substance": "546263 (eG*eG*eA*eG*eT*dA*dA*dA*dG*dA*dA*dT*dA*dA*dG*eT*eG*eA*eA*eA; antisense) [compound 546263]", "% inhibition": 0}, {"substance": "546265 (eG*eT*e[5mC]*eT*eT*d[5mC]*dT*dG*dG*dG*dA*dG*dT*dA*dA*eA*eG*eA*eA*eT; antisense) [compound 546265]", "% inhibition": 65}, {"substance": "546266 (eA*e[5mC]*eA*eG*eT*d[5mC]*dT*dT*d[5mC]*dT*dG*dG*dG*dA*dG*eT*eA*eA*eA*eG; antisense) [compound 546266]", "% inhibition": 63}, {"substance": "546267 (e[5mC]*e[5mC]*eT*eT*eA*d[5mC]*dA*dG*dT*d[5mC]*dT*dT*d[5mC]*dT*dG*eG*eG*eA*eG*eT; antisense) [compound 546267]", "% inhibition": 72}, {"substance": "546270 (eA*e[5mC]*eA*e[5mC]*eT*dT*dA*d[5mC]*dA*d[5mC]*dT*dT*d[5mC]*dT*d[5mC]*eT*eT*e[5mC]*e[5mC]*eT; antisense) [compound 546270]", "% inhibition": 32}, {"substance": "546271 (eA*eG*eA*eA*eA*d[5mC]*dA*d[5mC]*dT*dT*dA*d[5mC]*dA*d[5mC]*dT*eT*e[5mC]*eT*e[5mC]*eT; antisense) [compound 546271]", "% inhibition": 60}, {"substance": "546275 (eG*eA*eA*e[5mC]*e[5mC]*dA*dT*d[5mC]*d[5mC]*dA*dT*dA*dG*dA*dT*eA*eA*eT*e[5mC]*eT; antisense) [compound 546275]", "% inhibition": 87}, {"substance": "546276 (eT*eG*eG*eA*eG*dA*dA*d[5mC]*d[5mC]*dA*dT*d[5mC]*d[5mC]*dA*dT*eA*eG*eA*eT*eA; antisense) [compound 546276]", "% inhibition": 74}, {"substance": "546277 (eT*eG*eT*eG*eT*d[5mC]*d[5mC]*d[5mC]*dA*dT*dA*d[5mC]*dG*d[5mC]*dA*eA*eT*e[5mC]*e[5mC]*eT; antisense) [compound 546277]", "% inhibition": 90}, {"substance": "546279 (eG*e[5mC]*eT*e[5mC]*e[5mC]*d[5mC]*dT*dT*dG*dT*dG*dT*d[5mC]*d[5mC]*d[5mC]*eA*eT*eA*e[5mC]*eG; antisense) [compound 546279]", "% inhibition": 82}, {"substance": "546280 (e[5mC]*e[5mC]*eA*eG*eA*dG*d[5mC]*dT*d[5mC]*d[5mC]*d[5mC]*dT*dT*dG*dT*eG*eT*e[5mC]*e[5mC]*e[5mC]; antisense) [compound 546280]", "% inhibition": 86}, {"substance": "546281 (eG*eT*eA*eA*e[5mC]*d[5mC]*dA*dG*dA*dG*d[5mC]*dT*d[5mC]*d[5mC]*d[5mC]*eT*eT*eG*eT*eG; antisense) [compound 546281]", "% inhibition": 85}, {"substance": "546283 (antisense eT*e[5mC]*eT*e[5mC]*eA*dA*dA*dG*dA*dG*dT*dA*dA*d[5mC]*d[5mC]*eA*eG*eA*eG*e[5mC]) [compound 546283]", "% inhibition": 88}, {"substance": "546284 (antisense e[5mC]*eA*e[5mC]*eA*eA*dT*d[5mC]*dT*d[5mC]*dA*dA*dA*dG*dA*dG*eT*eA*eA*e[5mC]*e[5mC]) [compound 546284]", "% inhibition": 89}, {"substance": "546285 (antisense eG*eT*eT*eA*e[5mC]*dA*d[5mC]*dA*dA*dT*d[5mC]*dT*d[5mC]*dA*dA*eA*eG*eA*eG*eT) [compound 546285]", "% inhibition": 76}, {"substance": "546288 (antisense eG*eT*eT*eT*eG*dT*dT*d[5mC]*d[5mC]*dT*d[5mC]*d[5mC]*dA*dA*d[5mC]*eA*eA*eT*eG*e[5mC]) [compound 546288]", "% inhibition": 78}, {"substance": "546290 (antisense e[5mC]*e[5mC]*e[5mC]*e[5mC]*eA*dA*dG*dA*dA*dG*dA*dG*dT*dT*dT*eG*eT*eT*e[5mC]*e[5mC]) [compound 546290]", "% inhibition": 86}]}]}
